Molecular target: T1, GST-tagged truncated human mutant G2019S LRRK2 (Homo sapiens, UniProt Q5S007, G2019S)
T1 construct: GST-tagged truncated human mutant G2019S LRRK2; purchased Life Technologies Corporation (Carlsbad, CA)
Assay: LRRK2 G2019S Km ATP LanthaScreen assay
Format: biochemical
Conditions: 134 μM ATP (Km ATP), LRRKtide substrate, mean of several tests
Method in brief: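 IC50 values are means of repeat runs, fitted with a 4-parameter logistic to the 520/495 nm TR-FRET ratio from a Tb-labeled anti-phospho-LRRKtide antibody added with EDTA. Reactions ran 90 min at room temperature at Km ATP (134 μM) with fluorescein-LRRKtide, after 15-min compound preincubation with truncated GST-tagged G2019S LRRK2.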

T1 sequence (Q5S007 970-2527 G2019S limits assumed): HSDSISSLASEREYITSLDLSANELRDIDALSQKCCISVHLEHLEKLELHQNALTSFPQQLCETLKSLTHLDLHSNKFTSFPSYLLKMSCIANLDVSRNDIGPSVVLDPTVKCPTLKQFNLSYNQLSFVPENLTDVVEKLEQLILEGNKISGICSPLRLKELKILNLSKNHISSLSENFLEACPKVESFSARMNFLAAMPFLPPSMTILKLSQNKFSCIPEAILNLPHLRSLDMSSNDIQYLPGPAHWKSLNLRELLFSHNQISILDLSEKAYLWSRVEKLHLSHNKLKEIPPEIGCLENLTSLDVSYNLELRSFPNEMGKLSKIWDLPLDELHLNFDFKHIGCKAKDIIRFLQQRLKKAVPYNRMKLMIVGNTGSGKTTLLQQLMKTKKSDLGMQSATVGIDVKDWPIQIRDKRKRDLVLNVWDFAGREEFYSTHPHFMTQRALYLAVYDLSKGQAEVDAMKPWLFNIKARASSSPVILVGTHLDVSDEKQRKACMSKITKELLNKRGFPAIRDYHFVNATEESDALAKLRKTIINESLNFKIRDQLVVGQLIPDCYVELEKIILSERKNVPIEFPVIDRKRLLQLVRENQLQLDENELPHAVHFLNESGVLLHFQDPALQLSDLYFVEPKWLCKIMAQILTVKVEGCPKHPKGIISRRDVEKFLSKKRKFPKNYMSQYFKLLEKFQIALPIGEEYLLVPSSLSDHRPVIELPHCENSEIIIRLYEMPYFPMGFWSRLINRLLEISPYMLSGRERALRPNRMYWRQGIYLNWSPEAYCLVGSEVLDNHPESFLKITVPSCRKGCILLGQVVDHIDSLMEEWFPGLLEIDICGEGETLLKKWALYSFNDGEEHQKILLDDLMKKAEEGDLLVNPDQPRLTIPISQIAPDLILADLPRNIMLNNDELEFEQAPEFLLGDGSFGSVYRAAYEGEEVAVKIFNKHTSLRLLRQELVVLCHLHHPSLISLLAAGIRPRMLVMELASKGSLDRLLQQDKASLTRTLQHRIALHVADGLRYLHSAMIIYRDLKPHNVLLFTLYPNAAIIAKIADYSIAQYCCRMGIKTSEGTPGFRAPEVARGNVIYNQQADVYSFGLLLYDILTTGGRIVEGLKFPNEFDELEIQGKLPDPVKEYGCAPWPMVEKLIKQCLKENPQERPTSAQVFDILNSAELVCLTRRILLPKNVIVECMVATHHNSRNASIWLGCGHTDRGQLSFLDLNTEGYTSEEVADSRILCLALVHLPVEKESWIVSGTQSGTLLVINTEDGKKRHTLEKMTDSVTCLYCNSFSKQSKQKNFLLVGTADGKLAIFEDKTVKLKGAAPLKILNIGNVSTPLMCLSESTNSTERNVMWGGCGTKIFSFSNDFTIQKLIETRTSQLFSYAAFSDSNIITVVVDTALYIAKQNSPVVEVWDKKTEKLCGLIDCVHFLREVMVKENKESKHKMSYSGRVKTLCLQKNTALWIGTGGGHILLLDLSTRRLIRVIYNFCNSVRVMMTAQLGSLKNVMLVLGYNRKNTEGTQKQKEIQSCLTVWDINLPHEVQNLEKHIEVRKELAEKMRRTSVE

In the case of “(1R,2R,3R, or 1R,2S,3R, or 1S,2R,3S, or 1S,2S,3S)-N-[6-[4-((3R,4R or 3S,4S)-4-fluoro-3-methyl-tetrahydrofuran-3-yl)piperazin-1-yl]-7-methyl-3-isoquinolyl]-2-methyl-3-(1-methylpyrazol-4-yl)cyclopropanecarboxamide [Ex-10.58]”, the “LRRK2 pIC50” value is reported as 10.09.

Same assay, conditions: 134 μM ATP (Km ATP), LRRKtide substrate, mean of several tests, read-out: LRRK2 pIC50 (converted)

Point of comparison: N#CC1CCN(c2cc3cc(NC(=O)C4CC4c4cncnc4)ncc3cc2Cl)CC1 (single isomer, unassigned) [Ex-5.18], IC50 67.6 nM. Against it:
- Cn1ncc(C2CC2C(=O)Nc2cc3cc(N4CCN(C5(C)COCC5O)CC4)c(Cl)cc3cn2)n1 (single isomer, unassigned) [Ex-16.2, (1S,2R or 1S,2S)-N-(N-(7-chloro-6-(4-(4-hydroxy-3-methyltetrahydrofuran-3-yl)piperazin-1-yl)isoquinolin-3-yl)-2-(2-methyl-2H-1,2,3-triazol-4-yl)cyclopropane-1-carboxamide] — 830-fold lower, 0.0813 nM
- CC1(N2CCN(c3cc4cc(NC(=O)C5CC56CCOCC6)ncc4cc3Cl)CC2)COCC1O (single isomer, unassigned) [Ex-2.2, (R or S)-N-(7-chloro-6-(4-((3R,4R or 3S,4S)-4-hydroxy-3-methyltetrahydrofuran-3-yl)piperazin-1-yl)isoquinolin-3-yl)-6-oxaspiro[2.5]octane-1-carboxamide] — 19-fold lower, 3.63 nM
- CC1(N2CCN(c3cc4cc(NC(=O)C5CC56CC6(F)F)ncc4cc3Cl)CC2)COCC1O (single isomer, unassigned) [Ex-3.1, (1R,3R or 1R,3S, 1S,3R, 1S,3S)-N-(7-chloro-6-(4-((3R,4R or 3S,4S)-4-hydroxy-3-methyltetrahydrofuran-3-yl)piperazin-1-yl)isoquinolin-3-yl)-4,4-difluorospiro[2.2]pentane-1-carboxamide] — 69-fold lower, 0.977 nM
- CC1(N2CCN(c3cc4cc(NC(=O)C5CC5c5cccs5)ncc4cc3Cl)CC2)COCC1O (single isomer, unassigned) [Ex-10.13, (1R,2R or 1R,2S)-N-[7-chloro-6-[4-((3R,4R or 3S,4S)-4-hydroxy-3-methyl-tetrahydrofuran-3-yl)piperazin-1-yl]-3-isoquinolyl]-2-(2-thienyl)cyclopropanecarboxamide] — 830-fold lower, 0.0813 nM
- CC1(N2CCN(c3cc4cc(NC(=O)C5CC56CCCOC6)ncc4cc3Cl)CC2)COCC1O (single isomer, unassigned) [Ex-1.12, (1R,3S, or 1R,3R, or 1S,3S, or 1S,3R)-N-(7-chloro-6-(4-((3R,4R or 3S,4S)-4-hydroxy-3-methyltetrahydrofuran-3-yl)piperazin-1-yl)isoquinolin-3-yl)-5-oxaspiro[2.5]octane-1-carboxamide] — 18-fold lower, 3.72 nM
- CC1(N2CCN(c3cc4cc(NC(=O)C5CC5C(F)F)ncc4cc3Cl)CC2)COCC1F (single isomer, unassigned) [Ex-10.77, (1R,2R or 1S,2S)-N-[7-chloro-6-[4-((3R,4R or 3S,4S)-4-fluoro-3-methyl-tetrahydrofuran-3-yl)piperazin-1-yl]-3-isoquinolyl]-2-(difluoromethyl)cyclopropanecarboxamide] — 830-fold lower, 0.0813 nM
- CCC1C(C(=O)Nc2cc3cc(N4CCN(C5(C)COCC5F)CC4)c(C)cc3cn2)C1c1cnn(C)c1 (stereo not drawn) [Ex-9.20] — 830-fold lower, 0.0813 nM
- CC1(C)CC(C(=O)Nc2cc3cc(N4CCN(C5(C)COCC5O)CC4)c(Cl)cc3cn2)CO1 (single isomer, unassigned) [Ex-1.21, (R or S)-N-(7-chloro-6-(4-((3R,4R or 3S,4S)-4-hydroxy-3-methyltetrahydrofuran-3-yl)piperazin-1-yl)isoquinolin-3-yl)-5,5-dimethyltetrahydrofuran-3-carboxamide] — 39-fold lower, 1.74 nM
- COC1COCC1(C)N1CCN(c2cc3cc(NC(=O)C4CC45CCOCC5)ncc3cc2Cl)CC1 (single isomer, unassigned) [Ex-5.3] — 180-fold lower, 0.372 nM
- Cc1cc2cnc(NC(=O)C3CCOC(C)(C)C3)cc2cc1N1CCN(C2(C)CCOC2)CC1 (single isomer, unassigned) [Ex-10.41, (4R or 4S)-2,2-dimethyl-N-[7-methyl-6-[4-((R or S)-3-methyltetrahydrofuran-3-yl)piperazin-1-yl]-3-isoquinolyl]tetrahydropyran-4-carboxamide] — 220-fold lower, 0.309 nM
- COCC1CCC1C(=O)Nc1cc2cc(N3CCN(C4(C)COCC4O)CC3)c(Cl)cc2cn1 (single isomer, unassigned) [Ex-1.25, (1R,2S or 1R,2R, or 1S,2S, or 1S,2R)-N-(7-chloro-6-(4-((3R,4R)-4-hydroxy-3-methyltetrahydrofuran-3-yl)piperazin-1-yl)isoquinolin-3-yl)-2-(methoxymethyl)cyclobutane-1-carboxamide] — 430-fold lower, 0.158 nM
- CC1(C)OCCC1C(=O)Nc1cc2cc(N3CCN(C4(C)COCC4O)CC3)c(Cl)cc2cn1 (single isomer, unassigned) [Ex-1.24, (R or S)-N-(7-chloro-6-(1-((3R,4R or 3S,4S)-4-hydroxy-3-methyltetrahydrofuran-3-yl)piperazin-4-yl)isoquinolin-3-yl)-2,2-dimethyltetrahydrofuran-3-carboxamide] — within 1.5-fold, 69.2 nM
- CC1(N2CCN(c3cc4cc(NC(=O)C5CC56CCOC6)ncc4cc3Cl)CC2)COCC1O (single isomer, unassigned) [Ex-2.10, (1R,3R or 1S,3S)-N-(7-chloro-6-(4-((3R,4R or 3S,4S)-4-hydroxy-3-methyltetrahydrofuran-3-yl)piperazin-1-yl)isoquinolin-3-yl)-5-oxaspiro[2.4]heptane-1-carboxamide] — 110-fold lower, 0.589 nM
- CC(C)Cn1nccc1C1CC1C(=O)Nc1cc2cc(N3CCN(C4(C)COCC4O)CC3)c(Cl)cc2cn1 (single isomer, unassigned) [Ex-10.19, (1R,2R or 1S,2S)-N-[7-chloro-6-[4-((3R,4R or 3S,4S)-4-hydroxy-3-methyl-tetrahydrofuran-3-yl)piperazin-1-yl]-3-isoquinolyl]-2-(2-isobutylpyrazol-3-yl)cyclopropanecarboxamide] — 1.6-fold lower, 42.7 nM
- CC1(N2CCN(c3cc4cc(NC(=O)C5C6COCC65)ncc4cc3Cl)CC2)COCC1O (single isomer, unassigned) [Ex-1.10, (1R or S)-N-(7-chloro-6-(4-((3R,4R or 3S,4S)-4-hydroxy-3-methyltetrahydrofuran-3-yl)piperazin-1-yl)isoquinolin-3-yl)-3-oxabicyclo[3.1.0]hexane-6-carboxamide] — 1.6-fold higher, 107 nM
- O=C(Nc1cc2cc(N3CCN(C4COCC4O)CC3)c(Cl)cc2cn1)C1CC12CCOCC2 (single isomer, unassigned) [Ex-2.7, (R or S)-N-(7-chloro-6-(4-((3R,4R or 3S,4S)-4-hydroxytetrahydrofuran-3-yl)piperazin-1-yl)isoquinolin-3-yl)-6-oxaspiro[2.5]octane-1-carboxamide] — 5.6-fold higher, 380 nM
- CC1(O)CCN(c2cc3cc(NC(=O)C4CC4)ncc3cc2Cl)CC1 [Ex-4.2] — 6.4-fold lower, 10.5 nM
- CC1(C#N)CCN(c2cc3cc(NC(=O)C4CC4c4cncnc4)ncc3cc2Cl)CC1 (single isomer, unassigned) [Ex-5.15] — 11-fold lower, 6.17 nM
- CC1(C2CCOC2)CC1C(=O)Nc1cc2cc(N3CCN(C4(C)COCC4O)CC3)c(Cl)cc2cn1 (single isomer, unassigned) [Ex-10.88, (1R,2R or 1S,2S, or 1R,2S, or 1S,2R)-N-[7-chloro-6-[4-((3R,4R or 3S,4S)-4-hydroxy-3-methyl-tetrahydrofuran-3-yl)piperazin-1-yl]-3-isoquinolyl]-2-methyl-2-tetrahydrofuran-3-yl-cyclopropanecarboxamide] — 370-fold lower, 0.182 nM

Reference: patent publication US12516039B2, “N-linked isoquinoline amides as LRRK2 inhibitors, pharmaceutical compositions, and uses thereof” (Merck Sharp & Dohme LLC, priority 2020, dated 2026)
